# Earlier results as cited in PMC7770979 (Molecular Metabolism, 2020).
# Tested on: IR
substance,measurement,value
SerA12 substitution by alanine: insulin with SerA12 substitution by alanine (ref 34),"Affinity to IR, % of insulin",36%
